According to article PMC12860872, “Preclinical evaluation of DOTAGA.Glu.(FAPI)2 and DO3A.Glu.(FAPI)2 as theranostics with human dosimetry extrapolation to lutetium-177 and terbium-161 analogs” (European Journal of Nuclear Medicine and Molecular Imaging, 2025):
Values joined by “and” are separate entries in the source; they are usually repeats but may differ in a detail not shown here. Equal values may be shown once.

Assay: Extrapolated human dosimetry (OLINDA/EXM, ICRP-89 phantoms)
Description: To address inter-animal variability, the TIACs for each source organ were calculated from both the mean nTACs and the nTACs obtainend from fitting the mean ± 1 standard deviation (SD) of the normalized time-activity data, providing upper and lower bounds.
The mice-to-human TIAC extrapolation accounted for species-specific differences in relative source organ masses, m(organ), as compared to the total body weight (WB), for the mice (m) and human (h) models respectively.
(§1) The human organ masses, m(organ)h, were obtained from ICRP-89 adult male and female reference phantoms, while the murine organ masses, m(organ)m, were derived from the standard MOBY mouse model. The extrapolated human TIACs, TIACh were entered in the OLINDA/EXM software to compute the absorbed doses to target organs and the effective dose for adult male, female, and gender-averaged human models. […]
The TIACs, for [177Lu]Lu-DOTAGA.Glu.(FAPI)2 and [177Lu]Lu-DO3A.Glu.(FAPI)2, were determined by time integration of the nTACs. To account for the inter-animal variability, the TIACs for each source organ were calculated using both the mean nTACs and the nTACs obtainend from fitting the mean ±1 standard deviation (SD) of the normalized time-activity data. This approach provided the upper and the lower bounds for the estimated TIACs.
The mice-to-human TIAC extrapolation was obtained considering the different (species-specific) relative source organ masses, m(organ), as compared to the total body weight (WB), for the mice (m) and human (h) models respectively.
as §1, with “the” for “ICRP-89”, “models phantoms defined in ICRP-89,” for “phantoms,”, “TIACs values, TIACh, for each source organ” for “TIACs, TIACh”, “input into the kinetic module of” for “entered in”, “software (version 2.1, HERMES Medical Solutions AB, Stockholm, Sweden)” for “software”

[1] = ICRP 89 Adult Female, extrapolated
[2] = ICRP 89 Adult Male, extrapolated

Compound: N#C[C@@H]1CC(F)(F)CN1C(=O)CNC(=O)c1ccnc2ccc(OCCCCNC(=O)CC[C@H](NC(=O)CCC(C(=O)O)N3CCN(CC(=O)[O-])CCN(CC(=O)[O-])CCN(CC(=O)[O-])CC3)C(=O)NCCCCOc3ccc4nccc(C(=O)NCC(=O)N5CC(F)(F)C[C@H]5C#N)c4c3)cc12.[161Tb+3] (stereo partly drawn) [[^161Tb]Tb-DOTAGA.Glu.(FAPI)2]
- Absorbed dose (AD average) Adrenals [1]: 2.06E-02 mGy/Mbq
- Absorbed dose (AD average) Brain [1]: 4.11E-02 mGy/Mbq
- Absorbed dose (AD average) Breasts [1]: 3.94E-02 mGy/Mbq
- Absorbed dose (AD average) Esophagus [1]: 4.21E-02 mGy/Mbq
- Absorbed dose (AD average) Eyes [1]: 4.11E-02 mGy/Mbq
- Absorbed dose (AD average) Gallbladder Wall [1]: 4.47E-02 mGy/Mbq
- Absorbed dose (AD average) Heart Wall [1]: 6.03E-02 mGy/Mbq
- Absorbed dose (AD average) Kidneys [1]: 6.83E-02 ± 0.003 mGy/Mbq and 6.83E-02 mGy/Mbq
- Absorbed dose (AD average) Left colon [1]: 4.20E-02 mGy/Mbq
- Absorbed dose (AD average) Liver [1]: 2.78E-01 ± 0.02 mGy/Mbq and 2.78E-01 mGy/Mbq
- Absorbed dose (AD average) Lungs [1]: 6.37E-02 ± 0.01 mGy/Mbq and 6.37E-02 mGy/Mbq
- Absorbed dose (AD average) Osteogenic Cells [1]: 1.23E-01 ± 0.01 mGy/Mbq and 1.23E-01 mGy/Mbq
- Absorbed dose (AD average) Ovaries [1]: 4.17E-02 mGy/Mbq
- Absorbed dose (AD average) Pancreas [1]: 5.34E-02 ± 0.003 mGy/Mbq and 5.34E-02 mGy/Mbq
- Absorbed dose (AD average) Rectum [1]: 4.17E-02 mGy/Mbq
- Absorbed dose (AD average) Red Marrow [1]: 4.59E-02 ± 0.01 mGy/Mbq and 4.59E-02 mGy/Mbq
- Absorbed dose (AD average) Right colon [1]: 4.24E-02 mGy/Mbq
- Absorbed dose (AD average) Salivary Glands [1]: 1.73E-01 ± 0.01 mGy/Mbq and 1.73E-01 mGy/Mbq
- Absorbed dose (AD average) Small Intestine [1]: 4.17E-02 mGy/Mbq
- Absorbed dose (AD average) Spleen [1]: 4.83E-02 ± 0.01 mGy/Mbq and 4.83E-02 mGy/Mbq
- Absorbed dose (AD average) Stomach Wall [1]: 4.21E-02 mGy/Mbq
- Absorbed dose (AD average) Thymus [1]: 4.16E-02 mGy/Mbq
- Absorbed dose (AD average) Thyroid [1]: 4.05E-02 mGy/Mbq
- Absorbed dose (AD average) Total Body [1]: 6.01E-02 ± 0.01 mGy/Mbq and 6.01E-02 mGy/Mbq
- Absorbed dose (AD average) Urinary Bladder Wall [1]: 4.10E-02 mGy/Mbq
- Absorbed dose (AD average) Uterus [1]: 4.14E-02 mGy/Mbq
- Effective dose (average) [1]: 5.28E-02
- Absorbed dose (AD average) Adrenals [2]: 1.63E-02 mGy/Mbq
- Absorbed dose (AD average) Brain [2]: 2.76E-02 mGy/Mbq
- Absorbed dose (AD average) Esophagus [2]: 2.88E-02 mGy/Mbq
- Absorbed dose (AD average) Eyes [2]: 2.76E-02 mGy/Mbq
- Absorbed dose (AD average) Gallbladder Wall [2]: 3.50E-02 mGy/Mbq
- Absorbed dose (AD average) Heart Wall [2]: 5.00E-02 mGy/Mbq
- Absorbed dose (AD average) Kidneys [2]: 5.60E-02 ± 0.002 mGy/Mbq and 5.60E-02 mGy/Mbq
- Absorbed dose (AD average) Left colon [2]: 1.18E-01 mGy/Mbq
- Absorbed dose (AD average) Liver [2]: 2.29E-01 ± 0.02 mGy/Mbq and 2.29E-01 mGy/Mbq
- Absorbed dose (AD average) Lungs [2]: 5.19E-02 ± 0.004 mGy/Mbq and 5.19E-02 mGy/Mbq
- Absorbed dose (AD average) Osteogenic Cells [2]: 1.24E-01 ± 0.01 mGy/Mbq and 1.24E-01 mGy/Mbq
- Absorbed dose (AD average) Pancreas [2]: 4.25E-02 ± 0.002 mGy/Mbq and 4.25E-02 mGy/Mbq
- Absorbed dose (AD average) Prostate [2]: 2.77E-02 mGy/Mbq
- Absorbed dose (AD average) Rectum [2]: 1.17E-01 mGy/Mbq
- Absorbed dose (AD average) Red Marrow [2]: 3.37E-02 ± 0.003 mGy/Mbq and 3.37E-02 mGy/Mbq
- Absorbed dose (AD average) Right colon [2]: 7.38E-02 mGy/Mbq
- Absorbed dose (AD average) Salivary Glands [2]: 1.43E-01 ± 0.01 mGy/Mbq and 1.43E-01 mGy/Mbq
- Absorbed dose (AD average) Small Intestine [2]: 5.69E-02 ± 0.02 mGy/Mbq and 5.69E-02 mGy/Mbq
- Absorbed dose (AD average) Spleen [2]: 3.92E-02 ± 0.01 mGy/Mbq and 3.92E-02 mGy/Mbq
- Absorbed dose (AD average) Stomach Wall [2]: 4.15E-02 mGy/Mbq
- Absorbed dose (AD average) Testes [2]: 2.65E-02 mGy/Mbq
- Absorbed dose (AD average) Thymus [2]: 2.77E-02 mGy/Mbq
- Absorbed dose (AD average) Thyroid [2]: 2.76E-02 mGy/Mbq
- Absorbed dose (AD average) Total Body [2]: 4.51E-02 ± 0.01 mGy/Mbq and 4.51E-02 mGy/Mbq
- Absorbed dose (AD average) Urinary Bladder Wall [2]: 2.75E-02 mGy/Mbq
- Effective dose (average) (ICRP 89 Adult Male, extrapolated, in mSv/MBq (unit assumed)): 4.69E-02
- higher tissue doses vs. the 177Lu-labeled analogs (human extrapolation, average over tissues): ~ 38%
